The subject of experiment [1] is chick dorsal root ganglia (sensory neurons). Briefly: Chick dorsal root ganglion cultures and neurite outgrowth. The class given is cell-based. Here is the method:
Dorsal root ganglia were dissected from chick embryos of ten day gestation. Whole ganglion explants were cultured on thin layer Matrigel-coated 12 well plates with Liebovitz L15 plus high glucose media supplemented with 2 mM glutamine and 10% fetal calf serum, and also containing 10 μM cytosine β-D arabinofuranoside (Ara C) at 37° C. in an environment containing 5% CO2. Twenty four hours later, the DRGs were treated with various immunophilin ligands. Forty-eight hours after drug treatment, the ganglia were visualized under phase contrast or Hoffman Modulation contrast with a Zeiss Axiovert inverted microscope. Photomicrographs of the explants were made, and neurite outgrowth was quantitated. Neurites longer than the DRG diameter were counted as positive, with total number of neurites quanitated per each experimental condition. Three to four DRGs are cultured per well, and each treatment was performed in duplicate.
The data for these experiments for representative compounds are presented in the “ED50” column of Table III.

The target of experiment [2] is FKBP12 (FKBP) (Homo sapiens, UniProt P62942). Briefly: Ki test procedure: inhibition of peptidyl-prolyl isomerase (rotamase) activity, chymotrypsin-coupled assay. In kind it is biochemical. The following applies: apparent Ki, substrate N-succinyl-Ala-Ala-Pro-Phe-p-nitroanilide. An excerpt:
As discussed above, the compounds of the present invention have an affinity, for the FK506 binding protein, particularly FKBP12. The inhibition of the prolyl peptidyl cis-trans isomerase activity of FKBP may be measured as an indicator of this affinity.
Inhibition of the peptidyl-prolyl isomerase (rotamase) activity of the inventive compounds can be evaluated by known methods described in the literature (Harding, et al., Nature, 1989, 341:758-760; Holt et al. J. Am. Chem. Soc., 115:9923-9938). The cis-trans isomerization of an alanine-proline bond in a model substrate, N-succinyl-Ala-Ala-Pro-Phe-p-nitroanilide, is monitored spectrophotometrically in a chymotrypsin-coupled assay, which releases paranitroanilide from the trans form of the substrate. The inhibition of this reaction caused by the addition of different concentrations of inhibitor is determined, and the data is analyzed as a change in first-order rate constant as a function of inhibitor concentration to yield the apparent Ki values. […]
The absorbance at 390 nm versus time is monitored for 90 seconds using a spectrophotometer and the rate constants are determined from the absorbance versus time data files. […]

The structures appear in SMILES notation.

FKBP12 (FKBP), sequence (P62942 whole entry, species assumed): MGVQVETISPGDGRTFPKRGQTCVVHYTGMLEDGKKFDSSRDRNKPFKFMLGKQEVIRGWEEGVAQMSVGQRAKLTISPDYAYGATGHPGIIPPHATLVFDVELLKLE

Take `CCC(C)(C)C(=O)C(=O)N1CSCC1C(=O)OCCCc1cccnc1` [Compound 2, 3-(3-pyridyl)-1-propyl(2S)-1-(3,3-dimethyl-1,2-dioxopentyl) -2-(4-thiazolidine) carboxylate]: the “neurite outgrowth in sensory neurons (photomicrograph)” value in experiment [1] (10 pM), in experiment [1] (100 pM) and in experiment [1] (10 nM) was “promoting neurite outgrowth” each time. Also, in experiment [2], the Ki was determined as 638 nM.
With `CCC(C)(C)C(=O)C(=O)N1CSCC1C(=O)OCCCc1ccccc1` [Compound 1, 3-phenyl-1-propyl(2S)-1-(3,3-dimethyl-1,2-dioxopentyl)-2-(4-thiazolidine)carboxylate], the “neurite outgrowth in sensory neurons (photomicrograph)” value in experiment [1] (1 pM), in experiment [1] (10 pM) and in experiment [1] (100 pM) was “promoting neurite outgrowth” each time. Also, the Ki in experiment [2] is 215 nM.

The record behind these values is US20030032635A1, “Heterocyclic esters and amides” (priority 1996, published 2003).
